# Test results: ChEMBL document CHEMBL5344405, “Seleno-vs. thioether triazine derivatives in search for new anticancer agents overcoming multidrug resistance in lymphoma” (Eur J Med Chem, 2022)
# Active and inactive are the calls of the source. The calls are words filed in the database; no cut-off is given here.
# Tested on: not listed separately
# Assay: Upregulation of ABCB1 gene expression in human SH-SY5Y cells at 20 uM incubated for 96 hrs by RT-PCR analysis
# Assay type: toxicity, cell-based
# Conditions: not given
row,SMILES,Activity
1,CN1CCN(c2nc(N)nc(CCCSc3ccc4ccccc4c3)n2)CC1.Cl,Toxic

# Tested on: not listed separately
# Assay: Upregulation of ABCC1 gene expression in human SH-SY5Y cells at 20 uM incubated for 96 hrs by RT-PCR analysis
# Assay type: toxicity, cell-based
# Conditions: not given
row,SMILES,Activity
1,CN1CCN(c2nc(N)nc(CCCSc3ccc4ccccc4c3)n2)CC1.Cl,Toxic

# Tested on: not listed separately
# Assay: Upregulation of ABCG2 gene expression in human SH-SY5Y cells at 20 uM incubated for 96 hrs by RT-PCR analysis
# Assay type: toxicity, cell-based
# Conditions: not given
row,SMILES,Activity
1,CN1CCN(c2nc(N)nc(CCCSc3ccc4ccccc4c3)n2)CC1.Cl,Toxic

# Tested on: L5178Y
# Assay: Cytotoxicity against parental mouse L5178Y cells assessed as inhibition of cell growth incubated for 24 hrs by MTT assay
# Assay type: functional, cell-based
# Conditions: not given
row,SMILES,IC50 [µM]
1,CCCC([Se]c1ccccc1)c1nc(N)nc(N2CCN(C)CC2)n1.Cl (stereo unspecified),38.6
2,CN1CCN(c2nc(N)nc(C(C)(C)Sc3cccc4ccccc34)n2)CC1,14.8
3,CCCC(Sc1ccc2ccccc2c1)c1nc(N)nc(N2CCN(C)CC2)n1 (stereo unspecified),23.9
4,CN1CCN(c2nc(N)nc(CCC[Se]Cc3ccccc3)n2)CC1,32
5,CCCCC(Sc1ccc2ccccc2c1)c1nc(N)nc(N2CCN(C)CC2)n1 (stereo unspecified),23.2
6,CC(Sc1ccc2ccccc2c1)c1nc(N)nc(N2CCN(C)CC2)n1 (stereo unspecified),18.4
7,CCC(SCc1ccccc1)c1nc(N)nc(N2CCN(C)CC2)n1 (stereo unspecified),59.2
8,CC(Sc1ccccc1)c1nc(N)nc(N2CCN(C)CC2)n1 (stereo unspecified),> 100
9,CN1CCN(c2nc(N)nc(CCSc3ccccc3)n2)CC1,60.8
10,CN1CCN(c2nc(N)nc(C(C)(C)Sc3ccccc3)n2)CC1.Cl,68.8
11,CN1CCN(c2nc(N)nc(C[Se]Cc3ccccc3)n2)CC1,> 100
12,CCCCC(Sc1ccccc1)c1nc(N)nc(N2CCN(C)CC2)n1.Cl (stereo unspecified),15.5
13,CCC(Sc1ccc2ccccc2c1)c1nc(N)nc(N2CCN(C)CC2)n1 (stereo unspecified),17.8
14,CN1CCN(c2nc(N)nc(CCCSCc3ccccc3)n2)CC1,27.7
15,CN1CCN(c2nc(N)nc(CCCSc3ccc4ccccc4c3)n2)CC1.Cl,11.4

# Tested on: L5178Y
# Assay: Cytotoxicity against multidrug resistant mouse L5178Y cells expressing ABCB1 assessed as inhibition of cell growth incubated for 24 hrs by MTT assay
# Assay type: functional, cell-based
# Conditions: not given
row,SMILES,IC50 [µM]
1,CCCC([Se]c1ccccc1)c1nc(N)nc(N2CCN(C)CC2)n1.Cl (stereo unspecified),76.8
2,CN1CCN(c2nc(N)nc(C(C)(C)Sc3cccc4ccccc34)n2)CC1,23.4
3,CCCC(Sc1ccc2ccccc2c1)c1nc(N)nc(N2CCN(C)CC2)n1 (stereo unspecified),53.2
4,CN1CCN(c2nc(N)nc(CCC[Se]Cc3ccccc3)n2)CC1,57.4
5,CCCCC(Sc1ccc2ccccc2c1)c1nc(N)nc(N2CCN(C)CC2)n1 (stereo unspecified),45.2
6,CC(Sc1ccc2ccccc2c1)c1nc(N)nc(N2CCN(C)CC2)n1 (stereo unspecified),28.1
7,CCC(SCc1ccccc1)c1nc(N)nc(N2CCN(C)CC2)n1 (stereo unspecified),> 100
8,CC(Sc1ccccc1)c1nc(N)nc(N2CCN(C)CC2)n1 (stereo unspecified),> 100
9,CN1CCN(c2nc(N)nc(CCSc3ccccc3)n2)CC1,67
10,CN1CCN(c2nc(N)nc(C(C)(C)Sc3ccccc3)n2)CC1.Cl,83.9
11,CN1CCN(c2nc(N)nc(C[Se]Cc3ccccc3)n2)CC1,> 100
12,CCCCC(Sc1ccccc1)c1nc(N)nc(N2CCN(C)CC2)n1.Cl (stereo unspecified),21.6
13,CCC(Sc1ccc2ccccc2c1)c1nc(N)nc(N2CCN(C)CC2)n1 (stereo unspecified),30.4
14,CN1CCN(c2nc(N)nc(CCCSCc3ccccc3)n2)CC1,61.3
15,CN1CCN(c2nc(N)nc(CCCSc3ccc4ccccc4c3)n2)CC1.Cl,16.7

# Tested on: L5178Y
# Assay: Antiproliferative activity against parental mouse L5178Y cells assessed as inhibition of cell growth incubated for 72 hrs by MTT assay
# Assay type: functional, cell-based
# Conditions: not given
row,SMILES,IC50 [µM]
1,CCCC([Se]c1ccccc1)c1nc(N)nc(N2CCN(C)CC2)n1.Cl (stereo unspecified),14.4
2,CN1CCN(c2nc(N)nc(C(C)(C)Sc3cccc4ccccc34)n2)CC1,19.9
3,CCCC(Sc1ccc2ccccc2c1)c1nc(N)nc(N2CCN(C)CC2)n1 (stereo unspecified),43.3
4,CN1CCN(c2nc(N)nc(CCC[Se]Cc3ccccc3)n2)CC1,30.8
5,CCCCC(Sc1ccc2ccccc2c1)c1nc(N)nc(N2CCN(C)CC2)n1 (stereo unspecified),36.4
6,CC(Sc1ccc2ccccc2c1)c1nc(N)nc(N2CCN(C)CC2)n1 (stereo unspecified),21.3
7,CCC(SCc1ccccc1)c1nc(N)nc(N2CCN(C)CC2)n1 (stereo unspecified),83
8,CC(Sc1ccccc1)c1nc(N)nc(N2CCN(C)CC2)n1 (stereo unspecified),> 100
9,CN1CCN(c2nc(N)nc(CCSc3ccccc3)n2)CC1,54.5
10,CN1CCN(c2nc(N)nc(C(C)(C)Sc3ccccc3)n2)CC1.Cl,65.2
11,CN1CCN(c2nc(N)nc(C[Se]Cc3ccccc3)n2)CC1,45.6
12,CCCCC(Sc1ccccc1)c1nc(N)nc(N2CCN(C)CC2)n1.Cl (stereo unspecified),20.6
13,CCC(Sc1ccc2ccccc2c1)c1nc(N)nc(N2CCN(C)CC2)n1 (stereo unspecified),21.2
14,CN1CCN(c2nc(N)nc(CCCSCc3ccccc3)n2)CC1,38.8
15,CN1CCN(c2nc(N)nc(CCCSc3ccc4ccccc4c3)n2)CC1.Cl,6.71

# Tested on: L5178Y
# Assay: Antiproliferative activity against multidrug resistant mouse L5178Y cells expressing ABCB1 assessed as inhibition of cell growth incubated for 72 hrs by MTT assay
# Assay type: functional, cell-based
# Conditions: not given
row,SMILES,IC50 [µM]
1,CCCC([Se]c1ccccc1)c1nc(N)nc(N2CCN(C)CC2)n1.Cl (stereo unspecified),6.03
2,CN1CCN(c2nc(N)nc(C(C)(C)Sc3cccc4ccccc34)n2)CC1,24.7
3,CCCC(Sc1ccc2ccccc2c1)c1nc(N)nc(N2CCN(C)CC2)n1 (stereo unspecified),42.7
4,CN1CCN(c2nc(N)nc(CCC[Se]Cc3ccccc3)n2)CC1,38.6
5,CCCCC(Sc1ccc2ccccc2c1)c1nc(N)nc(N2CCN(C)CC2)n1 (stereo unspecified),35.5
6,CC(Sc1ccc2ccccc2c1)c1nc(N)nc(N2CCN(C)CC2)n1 (stereo unspecified),18.6
7,CCC(SCc1ccccc1)c1nc(N)nc(N2CCN(C)CC2)n1 (stereo unspecified),67.3
8,CC(Sc1ccccc1)c1nc(N)nc(N2CCN(C)CC2)n1 (stereo unspecified),68.7
9,CN1CCN(c2nc(N)nc(CCSc3ccccc3)n2)CC1,33.8
10,CN1CCN(c2nc(N)nc(C(C)(C)Sc3ccccc3)n2)CC1.Cl,53
11,CN1CCN(c2nc(N)nc(C[Se]Cc3ccccc3)n2)CC1,22.7
12,CCCCC(Sc1ccccc1)c1nc(N)nc(N2CCN(C)CC2)n1.Cl (stereo unspecified),17.4
13,CCC(Sc1ccc2ccccc2c1)c1nc(N)nc(N2CCN(C)CC2)n1 (stereo unspecified),27.5
14,CN1CCN(c2nc(N)nc(CCCSCc3ccccc3)n2)CC1,51.5
15,CN1CCN(c2nc(N)nc(CCCSc3ccc4ccccc4c3)n2)CC1.Cl,5.35

# Tested on: not listed separately
# Assay: Selectivity index, ratio of IC50 for parental mouse L5178Y cells to IC50 for multidrug resistant mouse L5178Y cells expressing ABCB1
# Assay type: functional
# Conditions: not given
row,SMILES,Ratio IC50
1,CCCC([Se]c1ccccc1)c1nc(N)nc(N2CCN(C)CC2)n1.Cl (stereo unspecified),>2

# Tested on: L5178Y
# Assay: Synergistic antiproliferative activity against multidrug resistant mouse L5178Y cells expressing ABCB1 assessed as combination index at 200 uM incubated for 72 hrs in presence of doxorubicin at 17.242 uM by checkerboard assay
# Assay type: functional
# Conditions: not given
row,SMILES,CI
1,CCCC([Se]c1ccccc1)c1nc(N)nc(N2CCN(C)CC2)n1.Cl (stereo unspecified),0.092
2,CN1CCN(c2nc(N)nc(C(C)(C)Sc3ccccc3)n2)CC1.Cl,0.41

# Tested on: L5178Y
# Assay: Synergistic antiproliferative activity against multidrug resistant mouse L5178Y cells expressing ABCB1 assessed as combination index at 50 uM incubated for 72 hrs in presence of doxorubicin at 17.242 uM by checkerboard assay
# Assay type: functional
# Conditions: not given
row,SMILES,CI
1,CCCCC(Sc1ccccc1)c1nc(N)nc(N2CCN(C)CC2)n1.Cl (stereo unspecified),0.148

# Tested on: L5178Y
# Assay: Synergistic antiproliferative activity against multidrug resistant mouse L5178Y cells expressing ABCB1 assessed as combination index at 60 uM incubated for 72 hrs in presence of doxorubicin at 17.242 uM by checkerboard assay
# Assay type: functional
# Conditions: not given
row,SMILES,CI
1,CN1CCN(c2nc(N)nc(CCCSc3ccc4ccccc4c3)n2)CC1.Cl,0.18

# Tested on: not listed separately
# Assay: Cytotoxicity against human HuT 102 cells assessed as inhibition of cell growth incubated for 72 hrs by MTS assay
# Assay type: functional, cell-based
# Conditions: HuT-102, 72 h
row,SMILES,IC50 [µM]
1,CCCC([Se]c1ccccc1)c1nc(N)nc(N2CCN(C)CC2)n1.Cl (stereo unspecified),54.3
2,CN1CCN(c2nc(N)nc(CCCSc3ccc4ccccc4c3)n2)CC1.Cl,19.7

# Tested on: not listed separately
# Assay: Cytotoxicity against human skin fibroblast cells assessed as inhibition of cell growth incubated for 72 hrs by MTS assay
# Assay type: toxicity, cell-based
# Conditions: not given
row,SMILES,IC50 at 72 h [µM]
1,CCCC([Se]c1ccccc1)c1nc(N)nc(N2CCN(C)CC2)n1.Cl (stereo unspecified),> 100
2,CN1CCN(c2nc(N)nc(CCCSc3ccc4ccccc4c3)n2)CC1.Cl,79.1

# Tested on: Jurkat
# Assay: Induction of cell cycle arrest in human Jurkat cells assessed as reduction in cyclin D1 gene expression at 50 uM incubated for 24 hrs by qPCR analysis
# Assay type: functional, cell-based
# Conditions: not given
row,SMILES,Activity
1,CCCC([Se]c1ccccc1)c1nc(N)nc(N2CCN(C)CC2)n1.Cl (stereo unspecified),Active
2,CN1CCN(c2nc(N)nc(CCCSc3ccc4ccccc4c3)n2)CC1.Cl,Active

# Tested on: Jurkat
# Assay: Induction of cell cycle arrest in human Jurkat cells assessed as reduction in cyclin E1 gene expression at 50 uM incubated for 24 hrs by qPCR analysis
# Assay type: functional, cell-based
# Conditions: not given
row,SMILES,Activity
1,CCCC([Se]c1ccccc1)c1nc(N)nc(N2CCN(C)CC2)n1.Cl (stereo unspecified),Active
2,CN1CCN(c2nc(N)nc(CCCSc3ccc4ccccc4c3)n2)CC1.Cl,Active

# Tested on: Jurkat
# Assay: Induction of cell cycle arrest in human Jurkat cells assessed as increase in p53 transcription at 50 uM incubated for 24 hrs by qPCR analysis
# Assay type: functional, cell-based
# Conditions: not given
row,SMILES,Activity
1,CN1CCN(c2nc(N)nc(CCCSc3ccc4ccccc4c3)n2)CC1.Cl,Active

# Tested on: Jurkat
# Assay: Induction of cell cycle arrest in human Jurkat cells assessed as increase in p21 transcription at 50 uM incubated for 24 hrs by qPCR analysis
# Assay type: functional, cell-based
# Conditions: not given
row,SMILES,Activity
1,CN1CCN(c2nc(N)nc(CCCSc3ccc4ccccc4c3)n2)CC1.Cl,Active

# Tested on: Jurkat
# Assay: Induction of cell cycle arrest in human Jurkat cells assessed as increase in p21 gene expression at 50 uM incubated for 24 hrs by qPCR analysis
# Assay type: functional, cell-based
# Conditions: not given
row,SMILES,Activity
1,CCCC([Se]c1ccccc1)c1nc(N)nc(N2CCN(C)CC2)n1.Cl (stereo unspecified),Active

# Tested on: Jurkat
# Assay: Synergistic induction of cell cycle arrest in human Jurkat cells assessed as reduction in cyclin D1 gene expression at 50 uM incubated for 24 hrs in presence of doxorubicin at 50 nM by qPCR analysis
# Assay type: functional, cell-based
# Conditions: not given
row,SMILES,Activity
1,CCCC([Se]c1ccccc1)c1nc(N)nc(N2CCN(C)CC2)n1.Cl (stereo unspecified),Active
2,CN1CCN(c2nc(N)nc(CCCSc3ccc4ccccc4c3)n2)CC1.Cl,Active

# Tested on: Jurkat
# Assay: Synergistic induction of cell cycle arrest in human Jurkat cells assessed as reduction in cyclin E1 gene expression at 50 uM incubated for 24 hrs in presence of doxorubicin at 50 nM by qPCR analysis
# Assay type: functional, cell-based
# Conditions: not given
row,SMILES,Activity
1,CN1CCN(c2nc(N)nc(CCCSc3ccc4ccccc4c3)n2)CC1.Cl,Active

# Tested on: Jurkat
# Assay: Synergistic induction of cell cycle arrest in human Jurkat cells assessed as increase in p53 gene expression at 50 uM incubated for 24 hrs in presence of doxorubicin at 50 nM by qPCR analysis
# Assay type: functional, cell-based
# Conditions: not given
row,SMILES,Activity
1,CCCC([Se]c1ccccc1)c1nc(N)nc(N2CCN(C)CC2)n1.Cl (stereo unspecified),Active
2,CN1CCN(c2nc(N)nc(CCCSc3ccc4ccccc4c3)n2)CC1.Cl,Active

# Tested on: Jurkat
# Assay: Synergistic induction of cell cycle arrest in human Jurkat cells assessed as increase in p21 gene expression at 50 uM incubated for 24 hrs in presence of doxorubicin at 50 nM by qPCR analysis
# Assay type: functional, cell-based
# Conditions: not given
row,SMILES,Activity
1,CCCC([Se]c1ccccc1)c1nc(N)nc(N2CCN(C)CC2)n1.Cl (stereo unspecified),Active
2,CN1CCN(c2nc(N)nc(CCCSc3ccc4ccccc4c3)n2)CC1.Cl,Active
